How the values were obtained:
Lactococcus lactis = experiment: Gram-stained smear of co-culture gel, Gram-positive cocci (G+c); type: cell-based; conditions: for Smear G^+c: cultivated 32 hours
Source text: 2.1 Experimental strains: one Lactococcus lactis strain and one Lactobacillus jensenii strain, both were clinical isolates.
The pH value was adjusted to 5.0.
2.4 Experimental procedure: the test gel tubes containing different concentrations of antimicrobial agents, as shown in Tables 1 to 6 were inoculated with 100 microliters of Lactobacillus lactis suspension and 100 microliters of Lactobacillus jensenii suspension at the same time. The turbidities of both suspensions were 0.5 MCF. Then the tubes were cultivated at 37° C. and under 5 percent CO2 for 32 hours. Then the changes of the pH values of gels were tested. The gels were smeared, Gram stained, and microscopically examined for the morphology and quantity of bacteria.

[1] = system: nine strains of Candida albicans; experiment: Growth of Candida in enrichment broth after 24 hours, clinical strains; type: cell-based; conditions: agent alone, broth pH 4.5, 37° C. 24 hours
Source text: b. Enrichment broth: which contained 1 percent of yeast extract powder, 9 percent of sucrose, 0.025 percent of manganese sulfate (MnSO4.4H2O), 0.058 percent of magnesium sulfate (MgSO4.7H2O), and 0.9 percent of lactic acid, the pH value of the broth was adjusted to 4.5, and the enrichment broth was sterilized for later use;
(2) Experimental groups: the requirements of aseptic operation technique were strictly followed so to prepare the sterile test tubes;
a. sodium benzoate group: each test tube contained 5 milliliters enrichment broth, and was added in 0.025 percent (weight/volume) of sodium benzoate;
b. 2-phenylethanol group: each test tube contained 5 milliliters enrichment broth, and was added in 0.050 percent (weight/volume) of 2-phenylethanol;
c. sodium propionate group: each test tube contained 5 milliliters enrichment broth, and was added in 0.125 percent (weight/volume) of sodium propionate;
d. “a group of the combinations of sodium benzoate and sodium propionate”: each test tube contained 5 milliliters enrichment broth, and was added in 0.025 percent (weight/volume) of sodium benzoate and 0.125 percent (weight/volume) of sodium propionate;
e. “a group of the combinations of sodium benzoate and 2-phenylethanol”: each test tube contained 5 milliliters enrichment broth, and was added in 0.025 percent (weight/volume) of sodium benzoate and 0.050 percent (weight/volume) of 2-phenylethanol;
f. “a group of the combinations of sodium propionate and 2-phenylethanol”: each test tube contained 5 milliliters enrichment broth, and was added in 0.125 percent (weight/volume) of sodium propionate and 0.050 percent (weight/volume) of 2-phenylethanol;
g. “a group of the combinations of sodium benzoate, sodium propionate and 2-phenylethanol”: each test tube contained 5 milliliters enrichment broth, and was added in 0.025 percent (weight/volume) of sodium benzoate, 0.125 percent (weight/volume) of sodium propionate and 0.050 percent (weight/volume) of 2-phenylethanol;
h. positive control: the control tube of enrichment broth without adding in 2-phenylethanol, sodium benzoate, and sodium propionate; but inoculated the suspension of Candida albicans;
i. negative control: the control tube of enrichment broth without adding in 2-phenylethanol, sodium benzoate, and sodium propionate; and without inoculating Candida albicans;
The requirements for aseptic operation technique were strictly followed to prepare the suspension of organism. The colonies of each strain of Candida albicans organism were diluted with physiological saline respectively. The turbidities of the suspensions of Candida albicans organism were adjusted to 0.5 MCF (about 10^8 CFU/ml) by a turbidimeter. 1 milliliter of the 0.5 MCF organism suspension was added into 9 milliliters of enrichment broth. Each suspension was diluted for ten times to contain 10^7 CFU/ml of organisms.
the requirements for aseptic technique were strictly followed to take 100 microliters of the prepared organism suspension respectively and to add the suspension into the test tubes from a to h as well as the positive control tube. No organism suspension was added into the negative control tube i.
The above tubes were cultured in a biochemical incubator at 37° C. for 24 hours. Then the growth of Candida in each tube was observed and recorded.
Remark: “+” means the growth of organisms; “−” means no growth of organisms.

Row | Compound | Smear G^+c (Lactococcus lactis; 0.15 % in test gel) | Smear G^+c (Lactococcus lactis; 0.2 % in test gel) | Smear G^+c (Lactococcus lactis; 0.25 % in test gel) | Smear G^+c (Lactococcus lactis; 0.3 % in test gel) | Smear G^+c (Lactococcus lactis; 0.35 % in test gel) | inhibition effect on the growth of Lactococcus lactis (Lactococcus lactis; 0.35 to 0.45 percent) | Smear G^+c (Lactococcus lactis; 0.4 % in test gel) | number of the nine Candida albicans strains that grew ([1]; 0.050 percent (weight/volume)) | Smear G^+c (Lactococcus lactis; 0.1 % in test gel) | inhibition effect on the growth of Lactococcus lactis (Lactococcus lactis; 0.4 to 0.6 percent) | Smear G^+c (Lactococcus lactis; 0.5 % in test gel) | number of the nine Candida albicans strains that grew ([1]; 0.125 percent (weight/volume))
1 | OCCc1ccccc1 [2-phenylethanol] | G^+c+++ | G^+c+++ | G^+c+++ | G^+c+++ | G^+c+~+ | stronger inhibition effect | G^+c+ | seven | – | – | – | –
2 | CCC(=O)[O-].[Na+] [sodium propionate] | – | G^+c+++ | – | G^+c+++ | – | – | G^+c+ | – | G^+c+++ | stronger inhibition effect | G^+c+ | six

Source: patent publication US20190231748A1, “COMPOSITION FOR VAGINA AND ANTIMICROBIAL AGENT COMBINATION FOR USE IN PREPARING COMPOSITION FOR VAGINA” (Shenzhen Eulikan Biotechnology Co., Ltd., priority 2016, published 2019)
